From ChEMBL document CHEMBL5360544, “Design, synthesis, and biological evaluation of diaryl heterocyclic derivatives targeting tubulin polymerization with potent anticancer activities” (Eur J Med Chem, 2023)
pIC50: −log10 of the molar value.

Key:
HCT-116 = experiment: Antiproliferative activity against human HCT-116 cells incubated for 48 hrs by CCK-8 assay; type: functional, cell-based; conditions: HCT-116, 48 h
HepG2 = experiment: Antiproliferative activity against human HepG2 cells incubated for 48 hrs by CCK-8 assay; type: functional, cell-based; conditions: HepG2, 48 h
SW480 = experiment: Antiproliferative activity against human SW480 cells incubated for 48 hrs by CCK-8 assay; type: functional, cell-based; conditions: SW480, 48 h
HeLa = experiment: Antiproliferative activity against human HeLa cells incubated for 48 hrs by CCK-8 assay; type: functional, cell-based
MDA-MB-231 = experiment: Antiproliferative activity against human MDA-MB-231 cells incubated for 48 hrs by CCK-8 assay; type: functional, cell-based; conditions: MDA-MB-231, 48 h
[1] = Antiproliferative activity against human HEK293T cells incubated for 48 hrs by CCK-8 assay; type: toxicity, cell-based, HEK-293T

SMILES	pIC50 (HCT-116)	pIC50 (HepG2)	pIC50 (SW480)	pIC50 (HeLa)	pIC50 (MDA-MB-231)	IC50 at 48 h [1] [µM]
COCc1ccc(-c2cnc(N)nc2-c2cc(OC)c(OC)c(OC)c2)cc1	4.78	5.69	< 4.19	< 4.19	4.85	> 80
COc1ccc(-c2cnc(N)nc2-c2cc(OC)c(OC)c(OC)c2)cc1C=O	< 4.19					
COC(=O)c1ccc(-c2cnc(N)nc2-c2cc(OC)c(OC)c(OC)c2)cc1	< 4.19					
COc1cc(-c2ccnn2-c2ccc(C(=O)O)cc2)cc(OC)c1OC	< 4.19					
COc1cc(-c2ccnn2-c2ccc(C#N)cc2)cc(OC)c1OC	< 4.19					
COc1cc(-c2nc(N)ncc2-c2ccccc2)cc(OC)c1OC	< 4.19					
COC(=O)c1ccc(-n2nccc2-c2cc(OC)c(OC)c(OC)c2)cc1	< 4.19					
COc1cc(-c2cnc(N)nc2-c2cc(OC)c(OC)c(OC)c2)ccc1O	< 4.19					
COc1cc(-c2ccnn2-c2nccs2)cc(OC)c1OC	< 4.19					
COc1cc(-c2ccnn2-c2cccnc2)cc(OC)c1OC	< 4.19					
COc1ccc(-c2cnc(N)nc2-c2cc(OC)c(OC)c(OC)c2)cc1	4.89	4.53	< 4.19	4.22	4.65	> 80
COc1cc(-c2nc(N)ncc2-c2ccc(CO)cc2)cc(OC)c1OC	< 4.19					
COc1cc(-c2ccnn2-c2ccc(C)cc2)cc(OC)c1OC	4.77	4.99	4.42	4.33	5.14	> 80
COc1ccc(-c2cnc(N)nc2-c2cc(OC)c(OC)c(OC)c2)cc1F	4.89	4.47	4.23	4.49	4.97	> 80
COc1cccc(-c2cnc(N)nc2-c2cc(OC)c(OC)c(OC)c2)c1	< 4.19					
COc1ccc(-c2cnc(N)nc2-c2cc(OC)c(OC)c(OC)c2)cc1N	5.13	4.77	4.28	< 4.19	4.94	> 80
COc1ccc(-n2nccc2-c2cc(OC)c(OC)c(OC)c2)cn1	< 4.19					
COc1cc(-c2nc(N)ncc2-c2cnc(N)nc2)cc(OC)c1OC	< 4.19					
COc1cc(-c2nc(N)ncc2-c2cccc(C)c2)cc(OC)c1OC	< 4.19					
COc1cc(-c2nc(N)ncc2-c2ccc(SC)cc2)cc(OC)c1OC	4.93	4.28	< 4.19	4.42	< 4.19	> 80

SMILES	pIC50 (HCT-116)	pIC50 (HepG2)	pIC50 (SW480)	pIC50 (HeLa)	pIC50 (MDA-MB-231)	IC50 at 48 h [1] [µM]
CNS(=O)(=O)Cc1ccc(-n2nccc2-c2cc(OC)c(OC)c(OC)c2)cc1	< 4.19					
COc1cc(-c2ccnn2-c2cccc(N)c2)cc(OC)c1OC	< 4.19					
COc1cc(-c2ccnn2-c2ccc([N+](=O)[O-])cc2)cc(OC)c1OC	< 4.19					
COc1cc(-c2nc(N)ncc2-c2ccccc2C)cc(OC)c1OC	< 4.19					
COc1cc(-c2nc(N)ncc2-c2ccc(Cl)cc2)cc(OC)c1OC	< 4.19					
COc1ccc(-c2cnc(N)nc2-c2cc(OC)c(OC)c(OC)c2)cc1[N+](=O)[O-]	< 4.19					
COc1cc(-c2ccnn2-c2ccc(OCc3ccccc3)cc2)cc(OC)c1OC	< 4.19					
COc1ccc(-c2cnc(NC(C)=O)nc2-c2cc(OC)c(OC)c(OC)c2)cc1N	< 4.19	< 4.19	< 4.19	< 4.19	< 4.19	> 80
COc1cc(-c2ccnn2-c2ccc(C)c(C)c2)cc(OC)c1OC	< 4.19					
COc1cc(-c2nc(N)ncc2-c2ccc(S(C)(=O)=O)cc2)cc(OC)c1OC	< 4.19					
CCOc1cc(-c2cnc(N)nc2-c2cc(OC)c(OC)c(OC)c2)ccc1Cl	< 4.19					
COc1cc(-c2ccnn2-c2ccc(F)cc2)cc(OC)c1OC	< 4.19					
COc1cc(-c2nc(N)ncc2-c2cn(S(=O)(=O)c3ccccc3)c3ccccc23)cc(OC)c1OC	< 4.19					
COc1cc(-c2nc(N)ncc2-c2cc3ccccc3s2)cc(OC)c1OC	5.37	6.60	5.22	4.75	4.84	> 80
COc1cc(-c2ccnn2-c2ccc(O)cc2)cc(OC)c1OC	< 4.19					
COc1cc(-c2ccnn2-c2ccc(Br)cc2)cc(OC)c1OC	< 4.19					
COc1cc(-c2ccnn2-c2ccc(CO)cc2)cc(OC)c1OC	< 4.19					
COc1cc(-c2nc(N)ncc2-c2ccc([N+](=O)[O-])cc2)cc(OC)c1OC	< 4.19					
COc1cc(-c2nc(N)ncc2-c2ccc3cc[nH]c3c2)cc(OC)c1OC	5.41	5.86	4.43	4.72	4.57	> 80
COc1cc(-c2nc(N)ncc2-c2c[nH]c3ccccc23)cc(OC)c1OC	< 4.19					

SMILES	pIC50 (HCT-116)	pIC50 (HepG2)	pIC50 (SW480)	pIC50 (HeLa)	pIC50 (MDA-MB-231)	IC50 at 48 h [1] [µM]
COc1cc(-c2cnc(N)nc2-c2cc(OC)c(OC)c(OC)c2)cc(OC)c1OC	< 4.19					
COc1cc(-c2ccnn2-c2ccc(S(N)(=O)=O)cc2)cc(OC)c1OC	< 4.19					
COc1cc(-c2ccnn2-c2cccc3ccccc23)cc(OC)c1OC	< 4.19					
COc1cc(-c2ccnn2-c2ccc(Cl)cc2)cc(OC)c1OC	< 4.19					
COc1cc(-c2ccnn2-c2ccc(S(C)(=O)=O)cc2)cc(OC)c1OC	< 4.19					
COc1cc(-c2ccnn2-c2ccc(I)cc2)cc(OC)c1OC	4.83	5.25	4.55	4.63	5.09	> 80
COc1ccc(-n2nccc2-c2cc(OC)c(OC)c(OC)c2)cc1	< 4.19					
COc1ccc(-c2cnc(N)nc2-c2cc(OC)c(OC)c(OC)c2)cc1Cl	< 4.19					
COc1cc(-c2nc(N)ncc2-c2ccc(C)c(C)c2)cc(OC)c1OC	4.62	4.82	< 4.19	< 4.19	< 4.19	> 80
COc1cc(-c2nc(N)ncc2-c2ccc3c(cnn3C)c2)cc(OC)c1OC	< 4.19					
CCn1c2ccccc2c2cc(-c3cnc(N)nc3-c3cc(OC)c(OC)c(OC)c3)ccc21	5.52	6.24	5.36	4.95	5.33	> 80
COc1cc(-c2ccnn2-c2ccccc2[N+](=O)[O-])cc(OC)c1OC	< 4.19					
COc1cc(-c2nc(N)ncc2-c2ccc(C)cc2)cc(OC)c1OC	< 4.19	4.34	4.40	4.60	< 4.19	> 80
COc1cc(-c2nc(N)ncc2-c2ccc(N)cc2)cc(OC)c1OC	4.41					
COc1cc(-c2ccnn2-c2cccc([N+](=O)[O-])c2)cc(OC)c1OC	< 4.19					
COc1cc(-c2nc(N)ncc2-c2ccc(F)cc2)cc(OC)c1OC	< 4.19					
COc1cc(-c2nc(N)ncc2-c2ccc3c(c2)OCCO3)cc(OC)c1OC	< 4.19					
COc1cc(-c2nc(N)ncc2-c2ccc3c(ccn3C)c2)cc(OC)c1OC	4.83	4.51	5.30	5.12	< 4.19	> 80
